# Experimental data taken from PubChem BioAssay (NCI).
# “And” between values parts separate entries of the source, which are not always exact repeats. Equal values may be shown once.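 Compound exposure: 48 hours, 5 concentrations, 96-well plates. Abbreviation: GI50, concentration required for 50% inhibition of growth. TGI marks complete inhibition of growth.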
# Experiments:
# Assay in all cases: NCI-60 cell line screen, 48 h
# HOP-62 NSCLC = tested on: HOP-62 NSCLC
# HCT-116 colon = tested on: HCT-116 colon
# HOP-92 NSCLC = tested on: HOP-92 NSCLC
# CCRF-CEM leukemia = tested on: CCRF-CEM leukemia
# HCC-2998 colon = tested on: HCC-2998 colon
# KM12 colon = tested on: KM12 colon
# SNB-75 CNS = tested on: SNB-75 CNS
# M14 melanoma = tested on: M14 melanoma
# SW-620 colon = tested on: SW-620 colon
# MCF7 breast = tested on: MCF7 breast
SMILES,TGI (HOP-62 NSCLC),TGI (HCT-116 colon) [µM],TGI (HOP-92 NSCLC) [µM],TGI (CCRF-CEM leukemia) [µM],TGI (HCC-2998 colon) [µM],TGI (KM12 colon),TGI (SNB-75 CNS) [µM],TGI (M14 melanoma) [µM],TGI (SW-620 colon) [µM],TGI (MCF7 breast) [µM],GI50 (HOP-62 NSCLC) [µM],GI50 (HCT-116 colon) [µM],GI50 (HOP-92 NSCLC) [µM],GI50 (CCRF-CEM leukemia) [µM],GI50 (HCC-2998 colon) [µM],GI50 (KM12 colon) [µM],GI50 (SNB-75 CNS) [µM],GI50 (M14 melanoma) [µM],GI50 (SW-620 colon) [µM],GI50 (MCF7 breast) [µM]
Cc1ccc2[nH]c(O)c(N=Nc3ccccc3[N+](=O)[O-])c2c1,10.7 µM,12.2,6.55,> 100,> 100,> 40.3 µM,> 50,> 100,> 100,> 100,,,,,,,,,,
COC(=O)C1=C(C(=O)ON)[C@@H]2C=C[C@@]1([C@@H](Cc1ccccc1)Nc1ccccc1)O2,32.4 µM,3.24,2.88,8.2,32.5,32.1 µM,24.9,3.89,3.51,8.12,16.9,1.67,1.5,2.43,17.2,15.5,12.4,1.87,1.8,2.34
CN[C@@H](Cc1cccc2ccccc12)C(=O)N[C@@H](CC(C)C)B(O)O,0.129 µM and 0.0368 µM,0.0285,0.0395,0.0354,0.0298,0.0444 µM and 0.0193 µM,0.0617,0.145,0.026,,0.0371,0.0118,0.0178,,0.0162,0.0203,0.0227,,0.012,0.00637
O=c1cc(-c2ccccc2)oc2c1ccc1ccccc12,> 100 µM,> 100,45.5,73.8,> 100,89.2 µM,45.9,> 100,> 100,> 100,29.6,20.3,9.25,22.8,56.7,24.9,11.6,61.1,49.2,13.9
S=C1SCN(Cc2ccccc2)CN1Cc1ccccc1,> 100 µM,13,13.8,3.56,37.8,6.84 µM,> 48.1,27.8,11.8,15.1,55.6,3.05,2.37,1.15,21.7,2.1,15.4,6.5,3.02,2.19
CCc1cccc(NC(=O)Nc2ccc(Oc3ccc4nc(NC(=O)OC)[nH]c4c3)cc2)c1,11 µM,> 14.9,10.4,> 25,> 25,4.94 µM,> 14.1,12.6,12.1,> 6.24,3.1,3.39,2.33,6.2,11.7,0.0985,2.53,3.13,3.05,0.654
CC[C@]12C=CCN3CC[C@@]4(c5ccc(OC)cc5N(C)[C@H]4[C@@](O)(C(=O)OC)[C@@H]1OC(=O)CCC(=O)O[C@H]1CC[C@H]4[C@@H]5CC[C@H]6CC(=O)CC[C@]6(C)[C@H]5CC[C@]14C)[C@@H]32,> 100 µM,10.1,9.72,> 100,> 100,> 100 µM,> 100,22.2,13.2,> 100,4.83,1.02,1.83,3.04,3.34,3.16,3.3,2,3.05,2.42
COc1ccc(-c2cc(-c3ccc(OC)cc3)nc(NCCCNc3ccnc4cc(Cl)ccc34)n2)cc1,3.06 µM,2.76,2.64,6.98,3.2,3.28 µM,24.5,3.28,3.34,3.5,1.56,1.45,1.24,2.26,1.73,1.78,11.8,1.74,1.69,1.65
CC1(C)CCc2c(c(N=Nc3ccccc3F)c3ccccc3c2O)O1,> 100 µM,> 100,> 100,> 100,> 100,65.1 µM,53.3,> 100,> 100,> 100,45.3,27.7,92.6,> 100,22.6,23,20.4,> 100,32.8,> 100
CCN(CC)CCn1c(=O)c2cc(OC)c(OC)cc2c2ccc3cc4c(cc3c21)OCO4,13.8 µM,6.2,> 50,> 33.6,25.7,23.9 µM,15.4,12.7,23.2,24.8,0.246,0.377,0.49,0.0824,2.57,0.734,0.305,0.278,0.692,0.0607
O=C1c2ccccc2C(=O)c2c1oc1c2c(=O)[nH]c2ccc(Cl)cc21,0.643 µM,1.09,0.389,4.66,2.55,3.02 µM,0.418,1.53,1.01,1.05,0.202,0.307,0.151,0.403,0.637,0.447,0.16,0.397,0.332,0.23
Cc1cc(=O)oc2cc3oc(N(C)c4ccccc4)nc(=O)c3cc12,> 100 µM,> 100,> 100,> 100,> 100,> 100 µM,> 100,> 100,> 100,> 100,,,,,,,,,,
COc1ccc(C2=NN(C(C)=O)C(c3ccc(Oc4ccnc5cc(Cl)ccc45)c(OC)c3)C2)cc1 (configuration not stated),13.1 µM,> 100,15.4,> 100,> 100,> 100 µM,6.16,> 100,> 100,> 100,3.37,2.61,3.03,> 100,> 100,> 100,1.66,93,> 100,29.4
CCCCc1n(Cc2ccc3ccccc3n2)cc[n+]1Cc1ccc2ccccc2n1,11.1 µM,11,4.34,13.9,10.4,6.19 µM,6.01,10.2,13.7,11.2,2.72,2.1,0.491,1.59,0.813,0.742,0.889,1.71,2.56,0.807
FC(F)(F)c1cc(NC(=S)N2c3ccccc3-n3cccc3C2c2cccnc2)cc(C(F)(F)F)c1 (configuration not stated),21.7 µM,40.3,7.87,33.7,19,32 µM,22.7,28.2,19.6,32,7.23,12.4,2.93,4.1,5.1,8.9,7.07,11.3,4.31,12.9
C/C(CC(C)(C)N1CC1)=N\NC(=O)Nc1cccc2ccccc12,15.8 µM,11.5,6.99,20.6,17,15.7 µM,13.8,15.2,12.4,11.2,4.12,3.32,1.65,2.37,4.81,4.13,2.62,4.25,2.89,2.42
O=C(Nc1ccccc1Cl)c1ccc(NC2=C(Cl)C(=O)N(C3CCCCC3)C2=O)cc1,29.3 µM,36.1,42.2,33.5,6.05,35.7 µM,34.4,42.1,30.2,36,8.37,5.51,17.4,8.29,3.55,16.9,8.64,11.7,10.3,9.82
Fc1ccc(-c2ncn(CCCN3CCOCC3)c2-c2ccncc2)cc1,> 25 µM,> 25,> 25,> 25,> 25,> 25 µM,> 25,> 25,> 25,> 25,> 25,> 25,> 25,> 25,> 25,> 25,> 25,> 25,> 25,> 25
CC(C)=Cc1cccc2[nH]c(O)c(N=Nc3ccc(S(N)(=O)=O)cc3)c12,> 25 µM,> 14.3,> 25,> 25,> 25,> 18.6 µM,> 25,> 25,> 25,> 25,> 14.3,1.74,6.57,1.23,> 25,0.1,> 8.54,> 25,1.14,1.04
CC(=O)Nc1ccc(OC(C)=O)cc1,14.7 µM,0.204,1.81,> 49.8,0.327,12.1 µM,28.6,3.32,> 100,> 74.4,< 0.01,< 0.01,< 0.0116,< 0.01,< 0.0117,< 0.01,< 0.01,< 0.01,< 0.01,< 0.01
